Measurements: patent US20120115724A1, “METHOD OF CONTROLLING UNDESIRED VEGETATION” (SYNGENTA CROP PROTECTION LLC, priority 2009, published 2012)

Columns and labels:
Format in all cases: in vivo
[1] = system: KCHSC Kochia scoparia; test: Post-emergence crop and weed test (Example 15); conditions: Bassia scoparia, 360 h, after 15 days, read-out: Percentage damage KCHSC
How it was run: (§1)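 Scoring: percent damage at 15 days after treatment, where 100 means total damage and 0 no damage. Treatment was a foliar spray of 14-day-old potted plants, using active ingredient diluted from a 5% acetone-based emulsifiable stock into water containing 0.2% X-77 adjuvant.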

[2] = system: CHEAL Chenopodium album; test: Post-emergence crop and weed test (Example 15); conditions: 360 h, after 15 days, read-out: Percentage damage CHEAL
How it was run: as §1

[3] = system: SINAR Sinapis arvensis; test: Post-emergence crop and weed test (Example 15); conditions: Mutarda arvensis, 360 h, after 15 days, read-out: Percentage damage SINAR
How it was run: as §1

[4] = system: GLXMA Soybean; test: Post-emergence crop and weed test (Example 15); conditions: Glycine max, 360 h, after 15 days, read-out: Percentage damage GLXMA
How it was run: as §1

[5] = system: GALAP Galium aparine; test: Post-emergence crop and weed test (Example 15); conditions: 360 h, after 15 days, read-out: Percentage damage GALAP
How it was run: as §1

[6] = system: XANST Xanthium strumarium; test: Post-emergence crop and weed test (Example 15); conditions: 360 h, after 15 days, read-out: Percentage damage XANST
How it was run: as §1

[7] = system: SIDSP Sida spinosa; test: Post-emergence crop and weed test (Example 15); conditions: 360 h, after 15 days, read-out: Percentage damage SIDSP
How it was run: as §1

[8] = system: KCHSC Kochia scoparia; test: Pre-emergence crop and weed test (Example 16); conditions: after 20 days
Protocol: (§2) Seeds of crop and representative weed species were sown in standard soil in pots. After cultivation for 1 day under controlled conditions in a glasshouse (at 22/16° C., day/night; 16 hours light; 65% humidity), the plants were sprayed. The spray solution was prepared by dissolving the technical active ingredient in acetone containing 10.56 wt % Emulsogen EL, 42.22 wt % N-methylpyrrolidone and 2.22 wt % DPG-monoethyl ether to give a 5% stock solution. This was then diluted with water containing 0.2% (v/v) of the adjuvant X-77 to give the desired treatment concentration.
(§3) The test plants were then grown on under controlled conditions in a glasshouse (at 22/16° C., day/night; 16 hours light; 65% humidity) and watered twice daily. After 20 days the test was evaluated (100=total damage to plant; 0=no damage to plant).
(§4) Species as for Post-Emergence Test.

[9] = system: CHEAL Chenopodium album; test: Pre-emergence crop and weed test (Example 16); conditions: after 20 days
Protocol: as §2, §3, §4

[10] = system: SINAR Sinapis arvensis; test: Pre-emergence crop and weed test (Example 16); conditions: after 20 days
Protocol: as §2, §3, §4

[11] = system: GLXMA Soybean; test: Pre-emergence crop and weed test (Example 16); conditions: after 20 days
Protocol: as §2, §3, §4

[12] = system: GALAP Galium aparine; test: Pre-emergence crop and weed test (Example 16); conditions: after 20 days
Protocol: as §2, §3, §4

[13] = system: AMARE Amaranthus retroflexus; test: Pre-emergence crop and weed test (Example 16); conditions: after 20 days
Protocol: as §2, §3, §4

[14] = system: POLCO Polygonum convolvulus; test: Pre-emergence crop and weed test (Example 16); conditions: after 20 days
Protocol: as §2, §3, §4

[15] = system: EPHHL Euphorbia heterophylla; test: Pre-emergence crop and weed test (Example 16); conditions: after 20 days
Protocol: as §2, §3, §4

[16] = system: XANST Xanthium strumarium; test: Pre-emergence crop and weed test (Example 16); conditions: after 20 days
Protocol: as §2, §3, §4

[17] = system: IPOHE Ipomoea hederacea; test: Pre-emergence crop and weed test (Example 16); conditions: after 20 days
Protocol: as §2, §3, §4

[18] = system: ABUTH Abutilon theophrasti; test: Pre-emergence crop and weed test (Example 16); conditions: after 20 days
Protocol: as §2, §3, §4

[19] = system: SIDSP Sida spinosa; test: Pre-emergence crop and weed test (Example 16); conditions: after 20 days
Protocol: as §2, §3, §4

`C/C=C/c1c(N)nc(-c2ccc(Cl)c(OC)c2F)nc1C(=O)OC` [Compound 3, (E)-4-Amino-2-(4-chloro-2-fluoro-3-methoxy-phenyl)-6-methoxy-carbonyl-5-(prop-1-enyl)-pyrimidine] gave a pest or weed control at 125 g/ha ([1]; 125 g/ha) of 80%, a pest or weed control at 125 g/ha ([2]; 125 g/ha) of 90% and a pest or weed control at 125 g/ha ([3]; 125 g/ha) of 70%. The plant injury at 125 g/ha ([4]; 125 g/ha) was 0%, the pest or weed control at 125 g/ha ([5]; 125 g/ha) was 70% and the pest or weed control at 125 g/ha ([6]; 125 g/ha) was 80%. The pest or weed control at 125 g/ha ([7]; 125 g/ha) was 80%, the “Percentage damage KCHSC” value ([8]; 30 g/ha) was 100% and the “Percentage damage CHEAL” value ([9]; 30 g/ha) was 100%. The “Percentage damage SINAR” value ([10]; 30 g/ha) was 40%, the “Percentage damage GLXMA” value ([11]; 30 g/ha) was 0% and the “Percentage damage GALAP” value ([12]; 30 g/ha) was 100%. For the same molecule, the “Percentage damage AMARE” value ([13]; 30 g/ha) was 80%, the “Percentage damage POLCO” value ([14]; 30 g/ha) was 50% and the “Percentage damage EPHHL” value ([15]; 30 g/ha) was 100%. The “Percentage damage XANST” value ([16]; 30 g/ha) was 10%, the “Percentage damage IPOHE” value ([17]; 30 g/ha) was 0% and the “Percentage damage ABUTH” value ([18]; 30 g/ha) was 30%. For the same molecule, the “Percentage damage SIDSP” value ([19]; 30 g/ha) was 90%.

For `C/C=C\c1c(N)nc(-c2ccc(Cl)c(OC)c2F)nc1C(=O)OC` [Compound 4, (Z)-4-Amino-2-(4-chloro-2-fluoro-3-methoxy-phenyl)-6-methoxy-carbonyl-5-(prop-1-enyl)-pyrimidine], the pest or weed control at 8 g/ha ([1]; 8 g/ha) was 30%, the pest or weed control at 8 g/ha ([3]; 8 g/ha) was 60% and the plant injury at 8 g/ha ([4]; 8 g/ha) was 20%. The pest or weed control at 8 g/ha ([5]; 8 g/ha) was 30%, the pest or weed control at 8 g/ha ([6]; 8 g/ha) was 90% and the pest or weed control at 8 g/ha ([7]; 8 g/ha) was 50%. The “Percentage damage CHEAL” value ([9]; 125 g/ha) was 40%, the “Percentage damage SINAR” value ([10]; 125 g/ha) was 50% and the “Percentage damage GLXMA” value ([11]; 125 g/ha) was 10%. The “Percentage damage GALAP” value ([12]; 125 g/ha) was 80%, the “Percentage damage AMARE” value ([13]; 125 g/ha) was 100% and the “Percentage damage POLCO” value ([14]; 125 g/ha) was 20%. For the same molecule, the “Percentage damage EPHHL” value ([15]; 125 g/ha) was 100%, the “Percentage damage XANST” value ([16]; 125 g/ha) was 30% and the “Percentage damage IPOHE” value ([17]; 125 g/ha) was 50%. The “Percentage damage ABUTH” value ([18]; 125 g/ha) was 100% and the “Percentage damage SIDSP” value ([19]; 125 g/ha) was 100%.

For `C/C=C\c1c(N)nc(-c2ccc(Cl)c(N(C)C)c2F)nc1C(=O)OC` [Compound 5, (Z)-4-Amino-2-(4-chloro-3-dimethylamino-2-fluorophenyl)-6-methoxy-carbonyl-5-(prop-1-enyl)-pyrimidine], the pest or weed control at 30 g/ha ([1]; 30 g/ha) was 70%, the pest or weed control at 30 g/ha ([2]; 30 g/ha) was 80% and the pest or weed control at 30 g/ha ([3]; 30 g/ha) was 80%. For the same molecule, the plant injury at 30 g/ha ([4]; 30 g/ha) was 0%, the pest or weed control at 30 g/ha ([6]; 30 g/ha) was 70% and the pest or weed control at 30 g/ha ([7]; 30 g/ha) was 0%. For the same molecule, the “Percentage damage KCHSC” value ([8]; 125 g/ha) was 30%, the “Percentage damage CHEAL” value ([9]; 125 g/ha) was 100% and the “Percentage damage SINAR” value ([10]; 125 g/ha) was 40%. For the same molecule, the “Percentage damage GLXMA” value ([11]; 125 g/ha) was 0%, the “Percentage damage GALAP” value ([12]; 125 g/ha) was 100% and the “Percentage damage AMARE” value ([13]; 125 g/ha) was 90%. The “Percentage damage POLCO” value ([14]; 125 g/ha) was 0%, the “Percentage damage EPHHL” value ([15]; 125 g/ha) was 100% and the “Percentage damage XANST” value ([16]; 125 g/ha) was 40%. The “Percentage damage IPOHE” value ([17]; 125 g/ha) was 50%, the “Percentage damage ABUTH” value ([18]; 125 g/ha) was 70% and the “Percentage damage SIDSP” value ([19]; 125 g/ha) was 90%.
